{"source": "patent US20210002725A1", "about": "“METHODS FOR THE DIAGNOSIS OF METABOLIC DISORDERS USING EPIMETABOLIC SHIFTERS, MULTIDIMENSIONAL INTRACELLULAR MOLECULES, OR ENVIRONMENTAL INFLUENCES” (Berg LLC, priority 2009, published 2021)", "tested_on": "HASMC cells", "experiment": "SeaHorse XF analyzer OCR and ECAR", "type": "cell-based, human", "details": "hyperglycemic cells in hypoxic conditions", "excerpt": "Environmental influencers (e.g., MIMs or Epi-shifters) may also be identified by changes in cellular energetics. One example of the measurement of cellular energetics are the real-time measures of the consumption of molecular oxygen and/or the change in pH of the media of a cell culture. For example, the ability of a potential epi-shifter to modulate the metabolic state of a cell may be analyzed using, for example, the XF24 Analyzer (Seahorse, Inc.). This technology allows for real time detection of oxygen and pH changes in a monolayer of cells in order to evaluate the bioenergetics of a cell microenvironment. The XF24 Analyzer measures and compares the rates of oxygen consumption (OCR), which is a measure of aerobic metabolism, and extracellular acidification (ECAR), which is a measure of glycolysis, both key indicators of cellular energetics.\n(SeaHorse Biosciences Inc, North Billerica, Mass.).\nIn this experiment, the OCR and extracellular acidification rate (ECAR) in normal cells lines were obtained in the presence and absence of CoQ10 to determine baseline values. It was observed that in its native nutrient environment, the basal OCR rates in normal cells lines are different, and are usually a function of the physiological roles of the cells in the body. […]"}
{"smiles": "COC1=C(OC)C(=O)C(C/C=C(\\C)CC/C=C(\\C)CC/C=C(\\C)CC/C=C(\\C)CC/C=C(\\C)CC/C=C(\\C)CC/C=C(\\C)CC/C=C(\\C)CC/C=C(\\C)CCC=C(C)C)=C(C)C1=O", "note": "[Q10, Coenzyme Q10]", "values": [{"measurement": "ECAR rates", "result": "downward trend"}]}
